Experimental data from patent US20210386714A1, “DRUG AND GENE THERAPY TO TREAT HIGH MYOPIA AND OTHER OCULAR DISORDERS WITH ENLARGED EYE GLOBES” (City University of Hong Kong, priority 2020, published 2021).
“Also recorded” adds a separate entry of the source.

Key:
[1] = tested on: eye enlargement induced by Lrp2 knockdown (AAV8-Best1-Lrp2 sh1); assay: eye globe dimension measurement after subretinal co-injection in Lrp2 knockdown eyes; type: in vivo, mouse; settings: subretinal co-injection with virus at P0, BF175 12.5 uM
Protocol: Subretinal injection into P0 (P2 for AAV-RK-viruses) neonate eyes was performed as known in the art. Approximately 0.25 μl of viruses in PBS was injected into the subretinal space using a pulled angled glass pipette controlled by a FemtoJet (Eppendorf). BF175 stock solution (25 mM in DMSO) was first mixed with Tween-20 (Sigma-Aldrich) at a ratio of 5:1 in order to help BF175 dissolve in PBS. Then the mixed solution was added to the virus to a final BF175 concentration of 12.5 uM. The vehicle treatment was virus added with the same amount of DMSO with Tween-20. For animals used for qPCR and RNA-seq, both left and right eyes were injected and used for RNA extraction. For animals used for eye size measurement or other phenotype characterizations, only the right eye of the animal was injected, and the fellow left eye was uninjected for with-in animal controls.
CD-1 mice were sacrificed at indicated ages. Eyes were enucleated, and connective tissues and muscles were carefully removed using tweezers and scissors. Eyes were immersed in PBS in 6 cm petri dish and imaged under a Nikon SMZ800N dissection scope with 2× magnification. ED and AL were measured in imageJ and converted to millimeters. OCT

[2] = tested on: SREBP2 transcriptional targets and Lrp2 in mouse RPE; assay: mouse RPE explant model, mRNA level by qPCR; type: cell-based
Source text: Eyes were quickly removed from the euthanized mouse and dipped in 70% ethanol for decontamination. Under a dissecting stereomicroscope, connective tissues and muscles were carefully removed. After washing twice in PBS, eyes were immersed in warm culture medium (DMEM:F12+10% FBS). Cornea was cutoff using curved scissors, and lens was pulled out gently with tweezers. Or a serrate was cut off to remove iris and cornea. Retina and optic nerve were carefully and completely removed from eye cups. Four radial cuts were made to enable flat-mounting of eye cups. Each eye cup was transferred onto the center of a floating polycarbonate nucleopore filter membrane (Whatman 110406, 0.2 Micron) placed in 6-well plates with the RPE side facing down. The freshly prepared BF175 stock solution was added to the full culture medium to a final BF175 concentration of 12.5 uM. Half of the medium was replaced with fresh medium on the second day. RPE flat-mounts were harvested at 48 hr in explant and processed for RPE isolation and RNA extraction.
Eyecups without retina and optic nerve tissues were dissected as described in the RPE explant section. Two eyes of the same mouse were pooled in one tube and processed together. RPE were incubated in papain solution (Worthington) for 15 minutes. After washing twice in warm medium, RPE were triturated with 600 μl pipette tip gently to dissociate the pigmented RPE cells from sclera. Resuspended cell solution was transferred to a clean tube and spun down at 600 g.
RNAs were converted to cDNA using PrimeScript RT reagent kit with gDNA Eraser (Takara). qPCR was performed using PowerUp Sybr Green Master Mix (Thermofisher) on QuantStudio 3 Real-Time PCR stems (Applied Biosystems). Gapdh was used as the normalizing control. qPCR primers were listed in Supplementary Information.

[3] = mouse RPE explant, 12.5 uM BF175 in culture medium, 48 hr

| SMILES | Lrp2 sh1-induced increase in eye size [1] | mRNA level of Hmgcr [2, 3] | mRNA level of Ldlr [2, 3] | mRNA level of Lrp2 (Lrp2 gene expression in RPE) [2, 3] | Lrp2 gene expression in RPE ([2]; RPE cells, Fatostatin, concentration not given) |
| --- | --- | --- | --- | --- | --- |
| CC1(C)OB(c2ccc(/C=C/c3cc(Cl)cc(Cl)c3)cc2)OC1(C)C [BF175] | rescued; also recorded: effectively suppressed | reduced | reduced | significantly increased | – |
| Br.CCCc1cc(-c2nc(-c3ccc(C)cc3)cs2)ccn1 [Fatostatin, reference compound] | – | – | – | – | increases |
